The assay deals with RPE65 (bovine RPE microsomes as the enzyme source) (Bos taurus, UniProt Q28175). The experiment in a line: in vitro retinoid isomerase activity assay. The class given is biochemical.

The structures appear in SMILES notation.

UniProt Q28175, sequence (Q28175 whole entry): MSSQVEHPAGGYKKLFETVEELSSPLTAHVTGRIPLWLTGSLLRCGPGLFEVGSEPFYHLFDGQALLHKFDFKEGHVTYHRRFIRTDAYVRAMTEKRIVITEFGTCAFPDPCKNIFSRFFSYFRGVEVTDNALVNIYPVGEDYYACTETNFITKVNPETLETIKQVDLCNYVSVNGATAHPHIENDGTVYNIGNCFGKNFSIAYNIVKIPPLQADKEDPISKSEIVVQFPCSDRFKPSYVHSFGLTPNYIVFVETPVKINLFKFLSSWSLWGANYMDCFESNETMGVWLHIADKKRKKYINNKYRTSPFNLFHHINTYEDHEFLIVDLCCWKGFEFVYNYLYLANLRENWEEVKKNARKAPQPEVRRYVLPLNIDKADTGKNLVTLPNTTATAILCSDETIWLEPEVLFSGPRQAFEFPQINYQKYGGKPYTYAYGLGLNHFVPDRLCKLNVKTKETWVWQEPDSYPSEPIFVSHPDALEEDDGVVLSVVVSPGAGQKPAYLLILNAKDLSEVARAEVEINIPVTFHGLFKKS

One may read the IC50 as the concentration at which inhibition is half-maximal. A high value points to weaker potency in that assay. Turning to `CC1=C(COc2cccc([C@H](O)CCN)c2)C(C)(C)CCC1` [MB-001, (R)-3-amino-1-(3-((2,6,6-trimethylcyclohex-1-en-1-yl)methoxy)phenyl)propan-1-ol], the IC50 is 396 ± 58 nM.

Values taken from article PMC4433804 (Nature chemical biology, 2015).
